{"source": "paper PMC12808597", "about": "“Spatially diffuse cAMP signalling with oppositely biased GLP-1 receptor agonists in β-cells despite differences in receptor localisation” (Molecular Metabolism, 2025)", "origin": "cited, not measured here", "key": {"GLP-1R [1]": {"tested_on": "GLP-1R", "conditions": "ref [6],[26]", "source_text": "In this context, interest has emerged in GLP-1R agonist ligands (GLP-1RAs) showing distinct trafficking profiles, which could lead to altered signalling from intracellular locations [[14], [15], [16]], as has been extensively noted for other GPCRs [[17], [18], [19]]."}, "BRIN-BD11 clonal β-cells": {"tested_on": "BRIN-BD11 clonal β-cells", "conditions": "ref [5]", "source_text": "(§1) In this work we relied on agonist-specific patterns of internalisation to provide selective endosomal or plasma membrane localisation of active GLP-1R. Alternative approaches include pharmacological or genetic inhibition of receptor internalisation, for example the small molecule dynamin inhibitor dyngo4A [55] or overexpression of dominant negative dynamin K44 mutants, both of which have been used to probe the importance of GLP-1R internalisation on its signalling responses."}, "rodent systems": {"tested_on": "rodent systems", "conditions": "no reference given"}, "HEK293 cells": {"tested_on": "HEK293 cells", "conditions": "ref [16]", "source_text": "as §1"}, "GLP-1R [2]": {"tested_on": "GLP-1R", "conditions": "ref [12]", "source_text": "GPCR signalling localisation is now a major area of research interest. Inherent to this phenomenon is the assumption that signalling responses are subject to tight spatial control, for example in the form of sharp cAMP concentration gradients close to the site of generation. Indeed, this has been reported when comparing GLP-1-induced cAMP responses at different plasma membrane nanodomains in HEK293 cells with overexpressed GLP-1R [12]. This contrasts somewhat with the current work in which cAMP was rapidly detected at intracellular locations distant from the activated GLP-1R in β-cell ..."}}, "note": "No end group written: not given here."}
{"compound": "AMG133: GLP-1RA/GIPR antagonistic antibody", "values": [{"measurement": "GLP-1R-mediated delivery to early endosomes", "setting": "GLP-1R [1]", "value": "enhanced GLP-1R-mediated delivery to early endosomes"}]}
{"compound": "O=C(N/N=C/c1ccc(O)c(O)c1)c1cc2ccccc2cc1O", "note": "[dynasore]", "values": [{"measurement": "Effect on exendin-4-induced cAMP production", "setting": "BRIN-BD11 clonal β-cells", "value": "reduced exendin-4-induced cAMP production"}]}
{"compound": "Cc1cc(-n2nc3c(c2-n2ccn(-c4ccc5c(cnn5C)c4F)c2=O)[C@H](C)N(C(=O)c2cc4cc([C@H]5CCOC(C)(C)C5)ccc4n2[C@@]2(c4noc(=O)[nH]4)C[C@@H]2C)CC3)cc(C)c1F", "note": "[orforglipron]", "values": [{"measurement": "Activity in rodent systems", "setting": "rodent systems", "value": "inactive"}]}
{"compound": "O=C(N/N=C/c1cc(O)c(O)cc1O)c1cc2ccccc2cc1O", "note": "[dyngo4a]", "values": [{"measurement": "Effect on GLP-1RA signalling responses", "setting": "HEK293 cells", "value": "broad inhibition of GLP-1RA signalling responses"}]}
{"compound": "GLP-1: GLP-1, as used in Anton et al. [12] (HAEGTFTSDVSSYLEGQAAKEFIAWLVKGR; ends and bridges not checked; UniProt P01275 98-127, looked up)", "values": [{"measurement": "cAMP at GLP-1R nanodomain", "setting": "GLP-1R [2]; GLP-1 1 pM", "value": "cAMP increases within 60 nm of the GLP-1R in HEK293 cells without changes to whole cell or overall plasma membrane cAMP"}, {"measurement": "cAMP gradient at GLP-1R nanodomain", "setting": "GLP-1R [2]; GLP-1 1 nM and 100 nM", "value": "no such gradient was seen"}]}
